Experiment: Solubility statements
Assay type: physicochemical

Row | solubility in acetone (DSP in acetone) | solubility in Fluorinert (Fluorinert FC77) | solubility in acetone (Solution V) (1.0 g in 100 g Solution V) | SMILES
1 | nonsolvent | nonsolvent | – | C[C@@H]1C[C@H]2[C@@H]3CCC4=CC(=O)C=C[C@]4(C)[C@@]3(F)[C@@H](O)C[C@]2(C)[C@@]1(O)C(=O)COP(=O)(O)O [DSP, dexamethasone sodium phosphate]
2 | – | – | dissolve completely | C[C@@H]1C[C@H]2[C@@H]3CCC4=CC(=O)C=C[C@]4(C)[C@@]3(F)[C@@H](O)C[C@]2(C)[C@@]1(O)C(=O)CO [dexamethasone]
